Drawing on patent publication EP3436445B1, “HISTONE DEMETHYLASE INHIBITORS” (Celgene Quanticel Research, Inc., priority 2016, dated 2017), this text covers IC50 for eight molecules.

The structures appear in SMILES notation. Bounds are passed on as bounds.

One may read the IC50 as the concentration needed to halve the response being measured.

The target of one assay is T1, PHF8 (Homo sapiens, UniProt Q9UPP1).
T1 construct: purchased Active Motif 31435
The assay can be described thus: PHF8 in vitro enzyme inhibition assay (TR-FRET). In kind it is biochemical. Particulars: Table 3; 3 nM PHF8, H3K9me1-biotin labeled peptide. The source says:
This assay determines the ability of a test compound to inhibit FBXL11, FBXL10, and PHF8 demethylase activity. Baculovirus expressed FBXL11 (GenBank Accession #NM_012308, AA1-1162) was purchased from BPS Bioscience (Cat#50102). Baculovirus expressed FBXL10 (GenBank Accession #NM_032590, AA 1-650) was purchased from BPS Bioscience (Cat #50120). Baculovirus expressed PHF8 (GenBank Accession NP_055922.1) was purchased from Active Motif (Cat#31435).
The ability of test compounds to inhibit the activity of PHF8 was determined in 384-well plate format under the following reaction conditions: 3 nM PHF8, 200 nM H3K9me1-biotin labeled peptide (Anaspec cat #64358), 0.5 µM alpha-ketoglutaric acid in assay buffer of 50 mM HEPES, pH7.3, 0.005% Brij35, 0.5 mM TCEP, 0.2 mg/ml BSA, 50 µM sodium L-ascorbate, and 5 µM ammonium iron(II) sulfate. Reaction product was determined quantitatively by TR-FRET after the addition of detection reagent Phycolink Streptavidin-allophycocyanin (Prozyme) and Europium-anti-unmodified-histone H3 lysine 9/lysine27 (H3K9/K27) antibody (PerkinElmer) in the presence of 5 mM EDTA in LANCE detection buffer (PerkinElmer) at a final concentration of 25 nM and 0.5 nM, respectively.
The assay reaction was initiated by the following: 2 µl of the mixture of 600 nM H3K9me1-biotin labeled peptide and 1.5 µM alpha-ketoglutaric acid with 2 µl of 11-point serial diluted inhibitor in 3% DMSO were added to each well of the plate, followed by the addition of 2 µl of 9 nM PHF8 to initiate the reaction. The reaction mixture was incubated at room temperature for 15 minutes, and terminated by the addition of 6 µl of 5 mM EDTA in LANCE detection buffer containing 50 nM Phycolink Streptavidin-allophycocyanin and 1 nM Europium-anti-unmodified H3K9/K27 antibody. Plates were read by EnVision Multilabel Reader in TR-FRET mode (excitation at 320 nm, emission at 615 nm and 665 nm) after 1 hour incubation at room temperature. A ratio was calculated (665/615) for each well and fitted to determine inhibition constant (IC50).

Another assay concerns the target T2, FBXL10 (Homo sapiens, UniProt Q8NHM5).
T2 construct: purchased BPS Bioscience 50120
T2 sequence (Q8NHM5 1-650): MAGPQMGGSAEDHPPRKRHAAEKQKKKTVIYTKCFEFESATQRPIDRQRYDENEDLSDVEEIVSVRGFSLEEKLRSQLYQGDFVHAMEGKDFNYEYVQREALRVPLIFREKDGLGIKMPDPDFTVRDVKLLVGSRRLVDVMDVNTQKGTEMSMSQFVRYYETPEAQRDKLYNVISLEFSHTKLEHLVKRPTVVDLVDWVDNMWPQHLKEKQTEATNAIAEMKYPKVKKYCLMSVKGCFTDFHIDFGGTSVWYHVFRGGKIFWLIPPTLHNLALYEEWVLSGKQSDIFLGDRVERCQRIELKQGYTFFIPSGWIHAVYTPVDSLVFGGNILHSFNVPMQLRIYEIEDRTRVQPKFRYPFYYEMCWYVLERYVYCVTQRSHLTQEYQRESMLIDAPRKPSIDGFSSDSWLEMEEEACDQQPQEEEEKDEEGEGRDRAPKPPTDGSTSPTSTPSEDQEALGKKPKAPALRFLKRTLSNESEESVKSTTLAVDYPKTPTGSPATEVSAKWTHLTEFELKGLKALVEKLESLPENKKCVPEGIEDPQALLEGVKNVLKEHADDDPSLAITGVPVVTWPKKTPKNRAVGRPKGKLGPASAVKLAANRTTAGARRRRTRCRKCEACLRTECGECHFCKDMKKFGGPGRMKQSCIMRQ
The assay can be described thus: FBXL10 in vitro enzyme inhibition assay (AlphaScreen). The class given is biochemical. Particulars: Table 3; 0.3 nM FBXL10, H3K36me2-biotin labeled peptide. The method, boiled down:
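Baculovirus-expressed FBXL10 (aa 1-650, 0.3 nM) reacted with 30 nM biotinylated H3K36me2 peptide and 0.2 µM α-ketoglutarate in HEPES pH 7.3 with ascorbate, Fe(II), TCEP and BSA for 1 h at room temperature, with 11-point inhibitor series. EDTA stopped the reaction. H3K36me1 product was read by AlphaScreen to give IC50.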
Background: Alpha assays give light when donor and acceptor beads are brought close together.

T1 sequence (Q9UPP1 37-1060): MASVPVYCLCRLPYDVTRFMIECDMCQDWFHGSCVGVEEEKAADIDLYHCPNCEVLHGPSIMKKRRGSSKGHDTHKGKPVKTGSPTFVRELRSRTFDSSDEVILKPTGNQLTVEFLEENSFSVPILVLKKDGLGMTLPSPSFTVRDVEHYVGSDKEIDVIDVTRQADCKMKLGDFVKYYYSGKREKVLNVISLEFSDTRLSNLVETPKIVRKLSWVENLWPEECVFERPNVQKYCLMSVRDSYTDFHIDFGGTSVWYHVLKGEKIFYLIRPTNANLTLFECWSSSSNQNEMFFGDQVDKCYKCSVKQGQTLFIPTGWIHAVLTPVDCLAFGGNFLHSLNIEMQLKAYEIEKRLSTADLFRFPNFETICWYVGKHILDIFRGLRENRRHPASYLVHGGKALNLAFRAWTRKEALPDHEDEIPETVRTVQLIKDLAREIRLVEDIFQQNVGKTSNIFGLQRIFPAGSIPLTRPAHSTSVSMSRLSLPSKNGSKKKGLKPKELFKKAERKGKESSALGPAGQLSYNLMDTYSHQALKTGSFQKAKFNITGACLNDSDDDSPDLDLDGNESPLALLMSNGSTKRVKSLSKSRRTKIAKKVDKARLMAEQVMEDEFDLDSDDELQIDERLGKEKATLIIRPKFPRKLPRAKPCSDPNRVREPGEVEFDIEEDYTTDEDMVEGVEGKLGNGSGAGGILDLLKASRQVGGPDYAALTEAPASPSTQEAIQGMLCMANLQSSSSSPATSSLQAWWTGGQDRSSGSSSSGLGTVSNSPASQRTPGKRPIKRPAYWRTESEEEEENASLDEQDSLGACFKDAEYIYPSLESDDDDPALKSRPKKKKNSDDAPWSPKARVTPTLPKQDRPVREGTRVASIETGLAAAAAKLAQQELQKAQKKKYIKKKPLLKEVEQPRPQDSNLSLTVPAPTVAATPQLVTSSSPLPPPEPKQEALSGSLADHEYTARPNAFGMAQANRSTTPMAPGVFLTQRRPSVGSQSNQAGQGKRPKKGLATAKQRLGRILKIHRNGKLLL

With `Clc1ccc(-n2cnc(-c3cc4[nH]nnc4cn3)c2)cc1` [Example 49, 1-(4-chlorophenyl)-4-{1H-[1,2,3]triazolo[4,5-c]pyridin-6-yl}-1H-imidazole], the results for the IC50 at PHF8 and at FBXL10 were 1000 to 10000 nM and at most 100 nM, respectively.

`Clc1ccc(Cn2cnc(-c3cc4[nH]nnc4cn3)c2)cc1Cl` [Example 48, 1-[(3,4-dichlorophenyl)methyl]-4-{1H-[1,2,3]triazolo[4,5-c]pyridin-6-yl}-1H-imidazole]: the IC50 against PHF8 was 1000 to 10000 nM; against FBXL10, at most 100 nM.

In the case of `Clc1cccc(Cn2cnc(-c3cc4[nH]nnc4cn3)c2)c1` [Example 46, 1-[(3-chlorophenyl)methyl]-4-{1H-[1,2,3]triazolo[4,5-c]pyridin-6-yl}-1H-imidazole], the values for the IC50 against PHF8 and at FBXL10 were 1000 to 10000 nM and at most 100 nM, respectively.

For `Clc1ccc(Cn2cnc(-c3cc4[nH]nnc4cn3)c2)cc1` [Example 47, 1-[(4-chlorophenyl)methyl]-4-{1H-[1,2,3]triazolo[4,5-c]pyridin-6-yl}-1H-imidazole], the IC50 was 1000 to 10000 nM on PHF8 and at most 100 nM against FBXL10.

Regarding `c1ccc(Cn2cnc(-c3cc4[nH]nnc4cn3)c2)cc1` [Example 44, 1-benzyl-4-{1H-[1,2,3]triazolo[4,5-c]pyridin-6-yl}-1H-imidazole], the IC50 against PHF8 was 100 to 1000 nM; against FBXL10, at most 100 nM.

With `Clc1ccccc1-n1cnc(-c2cc3[nH]nnc3cn2)c1` [Example 50, 1-(2-chlorophenyl)-4-{1H-[1,2,3]triazolo[4,5-c]pyridin-6-yl}-1H-imidazole], the IC50 at PHF8 was 1000 to 10000 nM; against FBXL10, at most 100 nM.

Consider `Clc1cccc(-n2cnc(-c3cc4[nH]nnc4cn3)c2)c1` [Example 51, 1-(3-chlorophenyl)-4-{1H-[1,2,3]triazolo[4,5-c]pyridin-6-yl}-1H-imidazole], for which the results for the IC50 against PHF8 and against FBXL10 were 1000 to 10000 nM and 100 to 1000 nM, respectively.

For the molecule `Clc1ccccc1Cn1cnc(-c2cc3[nH]nnc3cn2)c1` [Example 45, 1-[(2-chlorophenyl)methyl]-4-{1H-[1,2,3]triazolo[4,5-c]pyridin-6-yl}-1H-imidazole], the IC50 is 1000 to 10000 nM on PHF8 and at most 100 nM against FBXL10.
